Where two headings read alike, the source gives them in different places.
Tests used:
[1] = excipient compatibility study; assay type: physicochemical
Excerpt: In some embodiments, the diluent is a sugar or sugar-containing, except mannitol. For example, the diluent may be lactose, dextrin, glucose, sucrose, sorbitol. In some embodiments, the diluent is microcrystalline cellulose.
In some embodiments, the lubricant/glidant is glyceryl behenate.

[2] = Example 2, second clinical study: pharmacokinetics, bioavailability, food and rabeprazole effect; assay type: in vivo, human; details: for bioavailability: human, in vivo, po, 20 mg, 20 mg film-coated tablet, fasted, vs IV infusion
Protocol: The study comprises a screening period of maximum 28 days, and five periods during which subjects will participate from Day −1 of Period 1 to 72 hours after the AZD5055 dose in Period 5.
Period 1: On Day 1, the subjects will receive either 5 mg AZD5055 as a 20-minute IV infusion (Treatment A) in an overnight fasted state or AZD5055 20 mg as oral suspension (Treatment B) in an overnight fasted state.
Period 2: On Day 1 (Study Day 4), the subjects will receive 20 mg AZD5055 film-coated tablet (Treatment C) in an overnight fasted state.
Period 3: On Day 1 (Study Day 8) the subjects will receive a standardized high-fat breakfast 30 minutes before 20 mg AZD5055 administered as film-coated tablet (Treatment D).
Period 4: On Study Day 10, three days prior to Day 1, 20 mg rabeprazole will be administered twice daily. On Day 1 (Study Day 13), 20 mg AZD5055 film-coated tablet will be administered together with rabeprazole and rabeprazole dosing will continue twice daily (Treatment E).
Period 5: On Day 1 (Study Day 17) the participants will receive a low-fat breakfast 30 minutes before 20 mg AZD5055 film-coated tablet administered together with 20 mg rabeprazole.
Rabeprazole will continue twice daily, the last dose is on the evening of Study Day 18 (Treatment F).
There will be a minimum washout of 3 days between the AZD5055 dose administration in Period 1 and Period 2 and a minimum washout of 4 days between AZD5055 doses administrations for subsequent study periods. Repeated PK (pharmacokinetic) sampling will be performed pre-dose to 48 hours after dosing of AZD5055 of each period. Subjects will be discharged on Study Day 20 (Day 4 of Period 5), after all the samples have been collected and all the assessments have been performed.
Rabeprazole is administered as oral doses of 20 mg BID in the morning and evening. Pre-treatment with rabeprazole for 3 days is required to reach the PD (pharmacodynamic) steady state of pH elevation prior to administration of AZD5055.
A high-fat, high-calorie breakfast constitutes the following: 2 eggs fried in butter; 2 strips of bacon; 2 slices of toast with butter; 112 g/4 oz of hash-brown potatoes; 240 mL/8 oz of whole milk.
A low-fat, low-calorie breakfast constitutes the following: 1 boiled egg; 1 packet flavoured instant oatmeal made with water; 240 mL/8 oz milk (1% fat).
Pharmacokinetic Parameters—Pharmacokinetic parameters of AZD5055 included, but were not limited to, Cmax, AUCinf, and AUClast.
Approximately 18 healthy participants were enrolled to ensure that at least 15 participants completed the 5-period study. It was expected that the proposed sample size would give adequate information on the effect of formulation and concomitant treatment on the exposure of AZD5055, while exposing as few participants as possible to study procedures. Interpretation of the results were based on the estimated geometric mean ratio (GMR) and the associated 90% confidence interval (CI) between the combination of test and reference for AUC and Cmax.
Plasma concentrations were listed for each participant at each actual sampling time and summarized by treatment and nominal sampling time, using the same descriptive statistics as for the PK parameters. Graphical presentations included individual and geometric mean time-concentration curves (actual sampling time for individual curves and nominal sampling time for mean curves) on linear and semi-logarithmic scale. Pharmacokinetic variables and diagnostics of the PK analysis were listed, and PK variables were summarized by treatment using descriptive statistics (n, geometric mean, geometric coefficient of variation [gCV; %], arithmetic mean, arithmetic standard deviation [SD], minimum [min], median, and maximum [max]) for all variables except tmax, which were summarized using n, min, median, and max. […]

[3] = system: bleomycin-mediated fibrosis in the lungs of rats; details: cited from earlier work
[4] = 20 mg film-coated tablet vs oral suspension
[5] = tablet + rabeprazole fasted vs AZD5055 fasted alone
[6] = tablet + rabeprazole fed vs AZD5055 fasted alone
[7] = tablet with rabeprazole, fed vs fasted

Cc1cc(-c2nccc3c2ccn3CC(=O)Nc2ccc(-c3cnccn3)cn2)ccn1 [AZD5055, 2-[4-(2-methyl-4-pyridyl)pyrrolo[3,2-c]pyridin-1-yl]-N-(5-pyrazin-2-yl-2-pyridyl)acetamide]
degradation products with silicon dioxide and magnesium stearate ([1]; glidant and lubricant respectively): additional amounts of degradation products were identified
compatibility with mannitol ([1]; mannitol as diluent): not compatible
degradation products with mannitol ([1]; mannitol as diluent): additional amounts of degradation products were identified
compatibility with silicon dioxide and magnesium stearate ([1]; silicon dioxide as glidant, magnesium stearate as lubricant): not compatible
reduction in Cmax, tablet vs oral suspension [2, 4]: approximately 35%
total systemic exposure (AUCinf and AUClast), tablet vs oral suspension [2, 4]: comparable
Cmax relative to IV dose ([2]; film-coated tablet, percent of the IV dose): approximately 21%
bioavailability ([2]; read-out: absolute bioavailability based on AUCinf): ~66%
bioavailability ([2]; read-out: absolute bioavailability based on AUClast): ~64%
change in total systemic exposure (AUCinf and AUClast) with rabeprazole, fasted [2, 5]: no change in total systemic exposure
reduction in Cmax with rabeprazole, fasted [2, 5]: 32%
change in total systemic exposure (AUCinf and AUClast) with rabeprazole, fed [2, 6]: no change in total systemic exposure
reduction in Cmax with rabeprazole, fed [2, 6]: 20%
food effect on total systemic exposure with rabeprazole [2, 7]: food did not impact total systemic exposure
increase in Cmax by food with rabeprazole [2, 7]: approximately 17%
pulmonary fibrosis ([3]; rat bleomycin in vivo study (Bunyard 2019)): reduced pulmonary fibrosis
bleomycin-mediated fibrosis in the lungs ([3]; rats, preliminary studies (Bunyard 2019)): reduces bleomycin-mediated fibrosis in the lungs of rats

Source: US20260345593A1, “ORAL FORMULATION OF N-PYRIDINYL ACETAMIDE DERIVATIVE FOR TREATING INTERSTITIAL LUNG DISEASE” (AstraZeneca AB, priority 2022, published 2026)
